Measurements taken from patent US11691962B2 (eXIthera Pharmaceuticals, Inc., priority 2018, dated 2023).

Legend:
Type in all cases: biochemical
Factor XIa = Factor XIa (Homo sapiens (Human), UniProt P03951); assay: Factor XIa enzyme inhibition assay (dose response, fluorogenic AMC substrate); conditions: read-out: hFXIa IC50
Summary of the method: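 Fluorogenic progress curves (30 min, 1-min reads, 30° C) were recorded for 0.25 nM FXIa cleaving 50 μM Glp-Pro-Arg-AMC in Hepes pH 7.4 buffer with NaCl and Tween 20. Compounds were serially two-fold diluted, and IC50 was fitted with a Hill equation.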

Thrombin = Thrombin (Homo sapiens (Human), UniProt P00734); assay: Dose response assay for protease inhibitors: thrombin; conditions: selectivity, thrombin over Factor XIa
Protocol: (§1) • Assay buffer: 20 mM Hepes, pH 7.4; 150 mM NaCl; 0.02% Tween 20 • Compounds: 10 mM stocks in DMSO • Substrate: 20 mM Glp-Pro-Arg-AMC, 25 mg/2.3 mL H2O (store at +4° C.) [Factor XIa, thrombin, and trypsin] • 20 mM Pro-Phe-Arg-AMC (Bachem I-1295), 25 mg/2.2 mL H2O • or Boc-Leu-Gly-Arg-AMC (Bachem I-1105), 25 mg/2.07 mL H2O • (store at +4° C.) [Factor Xa] • Enzyme: Factor XIa; 0.25 μM in 50% glycerol (20 μg/mL) • Trypsin; 0.2 μM in 50% glycerol (4.8 μg/mL) • Thrombin; 0.2 μM in 50% glycerol (7.34 μg/mL) • Factor Xa; 0.2 μM in 50% glycerol (9.2 μg/mL) • These stocks are aliquoted (˜100 μL/aliquot) and stored at −20° C. Methods: • 1. Dilute the substrate to 100 μM in assay buffer (30 μL/6 mL). The enzyme is diluted to 0.5 nM just prior to use (12 μL/6 mL for Factor XIa; 15 μL/6 mL for all of the rest.) • 2. Pipette 50 μL of substrate into each well of the 96 well (12×8) microtiter plate. (Column 1 is used as the 100% activity control and receives no compound, and Column 12 is the blank and receives no enzyme.) Add an additional 46 μL to column 2. • 3. Pipette 4 μL of each compound into the appropriate well in column 2 of the plate (unknowns assayed in triplicate, standard assayed in duplicate). The final compound concentration will be […] of the stock. • 4. Serially two-fold dilute the compound by mixing the sample in column 2, removing 50 μL to the next well (column 3), mix and remove to column 4, etc. until column 11. After mixing column 11, remove 50 μL and discard. • 5. Pipette 50 μL of buffer into column 12. Initiate the reaction by adding 50 μL of enzyme solution to each well of columns 1-11 as rapidly as possible. • 6. Read the plate in a spectrophotometer (SpectraMax) at 30° C., wherein each well is measured every 60 s for 30 min. For Factor Xa assays, each well is measured every 1 min for a total of 60 min. • 7. For Factor XIa assays, the compounds are assayed, in duplicate, at 3 different starting concentrations, 20, 2, and 0.2 μM; 1:10, 1:100, and 1:1000 dilution of 10 mM stock or at 2, 0.2, and 0.02 μM; 1:100, 1:1000, and 1:10,000 dilution of 10 mM stock. Data for each concentration are combined for graphing and data fitting. • 8. Data can be used both for estimation of IC50 and for estimation of Kon.

Trypsin = assay: Dose response assay for protease inhibitors: trypsin; conditions: selectivity, trypsin over Factor XIa
Protocol: as §1

Factor Xa = Factor Xa (Homo sapiens (Human), UniProt P00742); assay: Dose response assay for protease inhibitors: Factor Xa; conditions: selectivity, Factor Xa over Factor XIa
Protocol: as §1

Factor Xa, sequence (P00742 235-488): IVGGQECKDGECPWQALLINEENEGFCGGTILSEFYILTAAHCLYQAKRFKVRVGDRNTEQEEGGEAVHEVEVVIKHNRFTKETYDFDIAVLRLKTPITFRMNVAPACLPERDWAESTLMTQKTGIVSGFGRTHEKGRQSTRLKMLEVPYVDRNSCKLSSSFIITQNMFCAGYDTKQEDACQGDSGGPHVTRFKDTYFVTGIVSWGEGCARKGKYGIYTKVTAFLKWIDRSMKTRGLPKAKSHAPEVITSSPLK
Factor Xa, sequence (P00742 41-179 partner): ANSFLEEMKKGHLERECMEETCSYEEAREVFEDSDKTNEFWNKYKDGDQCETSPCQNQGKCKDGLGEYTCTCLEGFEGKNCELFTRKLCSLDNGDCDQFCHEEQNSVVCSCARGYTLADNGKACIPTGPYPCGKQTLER
Factor XIa, sequence (P03951 388-625): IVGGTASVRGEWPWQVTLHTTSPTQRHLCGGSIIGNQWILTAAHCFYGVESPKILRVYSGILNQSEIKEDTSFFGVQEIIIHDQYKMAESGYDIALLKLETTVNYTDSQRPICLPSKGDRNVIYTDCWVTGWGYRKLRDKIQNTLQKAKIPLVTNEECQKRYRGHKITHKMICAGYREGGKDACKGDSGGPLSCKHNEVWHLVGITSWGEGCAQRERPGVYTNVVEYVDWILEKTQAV
Factor XIa, sequence (P03951 19-387 partner): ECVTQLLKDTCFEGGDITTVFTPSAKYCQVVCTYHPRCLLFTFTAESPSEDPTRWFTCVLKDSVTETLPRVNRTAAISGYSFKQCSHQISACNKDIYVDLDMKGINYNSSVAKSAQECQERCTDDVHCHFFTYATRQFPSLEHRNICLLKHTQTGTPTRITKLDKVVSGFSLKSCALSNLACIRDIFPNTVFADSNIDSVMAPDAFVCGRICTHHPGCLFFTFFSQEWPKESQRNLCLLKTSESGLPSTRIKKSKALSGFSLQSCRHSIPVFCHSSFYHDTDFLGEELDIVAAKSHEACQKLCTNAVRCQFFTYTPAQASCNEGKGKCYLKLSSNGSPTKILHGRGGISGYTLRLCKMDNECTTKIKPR

Row | SMILES | IC50 (Factor XIa) [nM] | Ratio: Thrombin/FXIa (Thrombin) | Ratio: FXa/FXIa (Factor Xa) | Ratio: Trypsin/FXIa (Trypsin)
1 | CN(C(=O)[C@@H]1[C@@H](Cc2ccnc(N)c2)C(=O)N1C(=O)NCc1cccc(Cl)c1)c1ccn(C)n1 [Compound 1-26, (2S,3R)-3-((2-aminopyridin-4-yl)methyl)-N2-(1-methyl-1H-pyrazol-3-yl)-N1-((3-chlorophenyl)methyl)-N2-methyl-4-oxoazetidine-1,2-dicarboxamide] | 10 to 100 | G (“G” indicates 1-100) | H (“H” indicates 101-1000) | G (“G” indicates 1-100)
2 | CN(C(=O)[C@@H]1[C@@H](Cc2ccnc(N)c2)C(=O)N1C(=O)N[C@@H](c1ccccc1)C(F)(F)F)c1ccn(C)n1 [Compound 1-31, (2S,3R)-3-((2-aminopyridin-4-yl)methyl)-N2-(1-methyl-1H-pyrazol-3-yl)-N1-((S)-1-phenyl-2,2,2-trifluoroethyl)-N2-methyl-4-oxoazetidine-1,2-dicarboxamide] | 10 to 100 | G (“G” indicates 1-100) | H (“H” indicates 101-1000) | G (“G” indicates 1-100)
3 | CC[C@@H](NC(=O)N1C(=O)[C@H](Cc2ccnc(NC)c2)[C@H]1C(=O)N(C)c1ccn(C)n1)c1cccc(Cl)c1 [Compound 1-37, (2S,3R)-3-((2-methylaminopyridin-4-yl)methyl)-N2-(1-methyl-1H-pyrazol-3-yl)-N1-((R)-1-(3-chlorophenyl)propyl)-N2-methyl-4-oxoazetidine-1,2-dicarboxamide] | 10 to 100 | H (“H” indicates 101-1000) | H (“H” indicates 101-1000) | G (“G” indicates 1-100)
4 | CC[C@@H](NC(=O)N1C(=O)[C@H](Cc2cc(C)nc(N)c2)[C@H]1C(=O)N(C)c1cn(C)cn1)c1ccccc1 [Compound 1-52, (2S,3R)-3-((2-amino-6-methylpyridin-4-yl)methyl)-N2-(1-methyl-1H-imidazol-4-yl)-N1-((R)-1-phenylpropyl)-N2-methyl-4-oxoazetidine-1,2-dicarboxamide] | 10 to 100 | G (“G” indicates 1-100) | H (“H” indicates 101-1000) | G (“G” indicates 1-100)
5 | CC[C@@H](NC(=O)N1C(=O)[C@H](Cc2ccnc(N)c2)[C@H]1C(=O)N(C)c1cnn(C)c1)C1CCCCC1 [Compound 1-69, (2S,3R)-3-((2-aminopyridin-4-yl)methyl)-N2-(1-methyl-1H-pyrazol-4-yl)-N1-((R)-1-cyclohexylpropyl)-N2-methyl-4-oxoazetidine-1,2-dicarboxamide] | 10 to 100 | G (“G” indicates 1-100) | H (“H” indicates 101-1000) | G (“G” indicates 1-100)
6 | CC[C@@H](NC(=O)N1C(=O)[C@H](Cc2cc(C)nc(NC)c2)[C@H]1C(=O)N(C)c1cn(C)cn1)c1ccccc1 [Compound 1-72, (2S,3R)-3-((2-methylamino-6-methylpyridin-4-yl)methyl)-N2-(1-methyl-1H-imidazol-4-yl)-N1-((R)-1-phenylpropyl)-N2-methyl-4-oxoazetidine-1,2-dicarboxamide] | 10 to 100 | G (“G” indicates 1-100) | H (“H” indicates 101-1000) | G (“G” indicates 1-100)

More lines, main results first:

Row | IC50 (Factor XIa) [nM] | Ratio: Thrombin/FXIa (Thrombin) | Ratio: FXa/FXIa (Factor Xa) | SMILES | Ratio: Trypsin/FXIa (Trypsin)
7 | < 10 | H (“H” indicates 101-1000) | I (“I” indicates > 500) | CN(C(=O)[C@@H]1[C@@H](Cc2ccnc(N)c2)C(=O)N1C(=O)NC(C1CCCCC1)C(F)(F)F)c1nccn1C (stereo in doubt) [Compound 1-56, (2S,3R)-3-((2-aminopyridin-4-yl)methyl)-N2-(1-methyl-1H-imidazol-2-yl)-N1-((R)-1-cyclohexyl-2,2,2-trifluoroethyl)-N2-methyl-4-oxoazetidine-1,2-dicarboxamide] | G (“G” indicates 1-100)
8 | < 10 | H (“H” indicates 101-1000) | H (“H” indicates 101-1000) | CC[C@@H](NC(=O)N1C(=O)[C@H](Cc2ccnc(N)c2)[C@H]1C(=O)N(C)c1cncs1)c1ccccc1 [Compound 1-12, (2S,3R)-3-((2-aminopyridin-4-yl)methyl)-N2-(5-thiazolyl)-N1-((R)-1-phenylpropyl)-N2-methyl-4-oxoazetidine-1,2-dicarboxamide] | G (“G” indicates 1-100)
9 | < 10 | G (“G” indicates 1-100) | H (“H” indicates 101-1000) | CCc1cccc([C@@H](CC)NC(=O)N2C(=O)[C@H](Cc3ccnc(N)c3)[C@H]2C(=O)N(C)c2cnn(C)c2)c1 [Compound 1-16, (2S,3R)-3-((2-aminopyridin-4-yl)methyl)-N2-(1-methyl-1H-pyrazol-4-yl)-N1-((R)-1-(3-ethylphenyl)propyl)-N2-methyl-4-oxoazetidine-1,2-dicarboxamide] | G (“G” indicates 1-100)
10 | < 10 | G (“G” indicates 1-100) | H (“H” indicates 101-1000) | CC[C@@H](NC(=O)N1C(=O)[C@H](Cc2ccnc(N)c2)[C@H]1C(=O)N(C)c1cnsc1)c1ccccc1 [Compound 1-19, (2S,3R)-3-((2-aminopyridin-4-yl)methyl)-N2-(4-isothiazolyl)-N1-((R)-1-phenylpropyl)-N2-methyl-4-oxoazetidine-1,2-dicarboxamide] | G (“G” indicates 1-100)
11 | < 10 | G (“G” indicates 1-100) | H (“H” indicates 101-1000) | CC[C@@H](NC(=O)N1C(=O)[C@H](Cc2ccnc(N)c2)[C@H]1C(=O)N(C)c1cn(C)cn1)c1cccc(Cl)c1 [Compound 1-25, (2S,3R)-3-((2-aminopyridin-4-yl)methyl)-N2-(1-methyl-1H-imidazol-4-yl)-N1-((R)-1-(3-chlorophenyl)propyl)-N2-methyl-4-oxoazetidine-1,2-dicarboxamide] | G (“G” indicates 1-100)
12 | < 10 | H (“H” indicates 101-1000) | G (“G” indicates 1-100) | CC[C@@H](NC(=O)N1C(=O)[C@H](Cc2ccnc(N)c2)[C@H]1C(=O)N(C)c1cccs1)c1cccc(Cl)c1 [Compound 1-28, (2S,3R)-3-((2-aminopyridin-4-yl)methyl)-N2-(thiophen-2-yl)-N1-((R)-1-(3-chlorophenyl)propyl)-N2-methyl-4-oxoazetidine-1,2-dicarboxamide] | G (“G” indicates 1-100)
13 | < 10 | H (“H” indicates 101-1000) | H (“H” indicates 101-1000) | CC[C@@H](NC(=O)N1C(=O)[C@H](Cc2ccnc(NC)c2)[C@H]1C(=O)N(C)c1cccs1)c1cccc(Cl)c1 [Compound 1-44, (2S,3R)-3-((2-methylaminopyridin-4-yl)methyl)-N2-(thiophen-2-yl)-N1-((R)-1-(3-chlorophenyl)propyl)-N2-methyl-4-oxoazetidine-1,2-dicarboxamide] | G (“G” indicates 1-100)
14 | < 10 | G (“G” indicates 1-100) | I (“I” indicates > 500) | CC[C@@H](NC(=O)N1C(=O)[C@H](Cc2ccnc(N)c2)[C@H]1C(=O)N(C)c1cn(C)cn1)C1CCCCC1 [Compound 1-71, (2S,3R)-3-((2-aminopyridin-4-yl)methyl)-N2-(1-methyl-1H-imidazol-4-yl)-N1-((R)-1-cyclohexylpropyl)-N2-methyl-4-oxoazetidine-1,2-dicarboxamide] | G (“G” indicates 1-100)
